Results from patent EP0429304A2, “Pyridone-carboxylic acid derivatives and their use as veterinary medicines” (SHIONOGI SEIYAKU KABUSHIKI KAISHA trading under the name of …, priority 1989, dated 1991).
Where two headings read alike, the source gives them in different places.

Experiments:
[1] = tested on: Mycoplasma gallisepticum (MG) S6; assay: In vitro sensitivity test (liquid dilution method); type: cell-based; conditions: 37°C, 7 days
Experimental: (§1) Survey of the sensitivity of the compound (I) to various strains of microorganisms was performed by a liquid dilution method […] an agar dilution method, in which the bacteria used were of animal origin and included the following strains (15 strains out of 11 bacteria): Chicken-origin strain: Mycoplasma gallisepticum (MG), Mycoplasma synoviae (MS), Hemophilus paragallinarum (H.pg) and Escherichia coli (E.coli); Pig-origin strain: Mycoplasma hyopneumoniae (Mh), Hemophilus pleuropneumonia (H.pp) and Bordetella bronchiseptica (B.br); Fish-origin strain: Pasteurella piscicida (P.pis) and Streptococcus sp (Str.sp); others: Escherichia coli (E. coli), Salmonella typhimurium (S.typhi) and Staphylococcus aureus (S.au).
(§2) Of these bacteria, the strains belonging to MG, MS and Mh were cultured at 37°C for 7 days by a liquid dilution method, of which the culture medium comprised: 12 % horse-serum added "PPLO" (agar manufactured by Difco) medium for MG; 12 % pig-serum, 0.01 % βNAD (nicotinamide adenine dinucleotide) added Frey medium for MS; 0.5 % lactoalbumin added Hank's solution, 10 % horse-serum, 0.5 % yeast extract (25 %) for Mh, and the agar dilution method was applied to the strains belonging to H.pg, H.pp, S.typhi, E.coli, S.au and B.br. Specifically, the H.pg strain was cultured in a 5 % chicken-serum added chicken bouillon medium and the H.pp strain was cultured in a heart infusion agar added with 10 % sheep defibered blood and 0.05 % βNAD. In case of the H.pg and P.pp strains, observation was made after cultivation at 37°C for 20 hours under 10 % CO₂. Mueller Hinton agar (Difco) was used for the strains belonging to S.typhi, E.coli, S.au and B.br, and observation was made after cultivation at 37°C for 20 to 24 hours. P.pis and Str.sp, both being of fish-origin, were respectively cultured at 25°C for 40 to 48 hours in a 1.5 % NaCl added heart infusion agar and in a sensitive disk medium.

[2] = tested on: Mycoplasma hyopneumoniae (Mh) ST-11; assay: In vitro sensitivity test (liquid dilution method); type: cell-based; conditions: 37°C, 7 days
Experimental: as §1, §2

[3] = tested on: Bordetella bronchiseptica (B.br) ABU-1; assay: In vitro sensitivity test (agar dilution method); type: cell-based; conditions: 37°C, 20 to 24 hours
Experimental: as §1, §2

[4] = tested on: Escherichia coli (E.coli) JC-2; assay: In vitro sensitivity test (agar dilution method); type: cell-based; conditions: 37°C, 20 to 24 hours
Experimental: as §1, §2

[5] = tested on: Hemophilus pleuropneumonia (H.pp) M-1; assay: In vitro sensitivity test (agar dilution method); type: cell-based; conditions: 37°C, 20 hours, 10 % CO₂
Experimental: as §1, §2

[6] = tested on: Salmonella typhimurium (S.typhi) 13311; assay: In vitro sensitivity test (agar dilution method); type: cell-based; conditions: 37°C, 20 to 24 hours
Experimental: as §1, §2

[7] = tested on: Staphylococcus aureus (S.au) 209P; assay: In vitro sensitivity test (agar dilution method); type: cell-based; conditions: 37°C, 20 to 24 hours
Experimental: as §1, §2

[8] = tested on: Pasteurella piscicida (P.pis) No. 2; assay: In vitro sensitivity test; type: cell-based; conditions: 25°C, 40 to 48 hours
Experimental: as §1, §2

[9] = tested on: Streptococcus sp (Str.sp) SNO6119; assay: In vitro sensitivity test; type: cell-based; conditions: 25°C, 40 to 48 hours
Experimental: as §1, §2

[10] = tested on: TS-resistant strain of MG; type: in vivo, chicken; conditions: for antimicrobial activity compared with ERFX: in vivo, po; for Infectious index Left air sack + / Infectious index Left air sack ++ / Infectious index Left air sack +++ / Infectious index Left air sack - / Infectious index Right air sack + / Infectious index Right air sack ++ / Infectious index Right air sack +++ / Infectious index Right air sack -: count of fowl; for Infectious index Left air sack + / Infectious index Left air sack ++ / Infectious index Left air sack +++ / Infectious index Left air sack - / Infectious index Right air sack + / Infectious index Right air sack ++ / Infectious index Right air sack +++ / Infectious index Right air sack - / Number of fowl having air sack lesions / Number of infected fowl/Number of fowl tested: 9-days chicken; for Number of infected fowl/Number of fowl tested: 3.5 x 10³ CFU/fowl
[11] = tested on: Escherichia coli (E.coli) E-17, chicken-origin strain isolated from the field; assay: In vitro sensitivity test (agar dilution method); type: cell-based; conditions: 37°C, 20 to 24 hours
Experimental: as §1, §2

[12] = tested on: Hemophilus paragallinarum (H.pg) 221; assay: In vitro sensitivity test (agar dilution method); type: cell-based; conditions: agar dilution, 37°C, 20 hours, 10 % CO₂
Experimental: as §1, §2

[13] = tested on: Hemophilus paragallinarum (H.pg) S-1; assay: In vitro sensitivity test (agar dilution method); type: cell-based; conditions: agar dilution, 37°C, 20 hours, 10 % CO₂
Experimental: as §1, §2

[14] = tested on: TS-resistant MG; assay: Experimental MG infection to chicken, through bait; type: in vivo; conditions: 9-days chicken, 6.6 x 10³ CFU/fowl, dissection 6th day after inoculation
[15] = oral 6.25 mg/kg, 1.7 x 10³ CFU/fowl
[16] = oral 12.5 mg/kg, 1.7 x 10³ CFU/fowl
[17] = oral 25.0 mg/kg, 1.7 x 10³ CFU/fowl
[18] = oral 1.56 mg/kg, 2.2 x 10³ CFU/fowl
[19] = oral 6.25 mg/kg, 2.2 x 10³ CFU/fowl
[20] = oral 12.5 mg/kg, 2.2 x 10³ CFU/fowl
[21] = oral 25.0 mg/kg, 2.2 x 10³ CFU/fowl

Compound: Cl.N[C@H]1CC[C@H]2CN(c3c(F)cc4c(=O)c(C(=O)O)cn(C5CC5)c4c3F)C[C@H]21 (relative stereo) [I-12]
- In vitro Sensitivity Test MG S6 [1]: 0.00313 µg/mL
- In vitro Sensitivity Test Mh ST-11 [2]: <0.00625 µg/mL
- In vitro Sensitivity Test B.br ABU-1 [3]: 0.39 µg/mL
- In vitro Sensitivity Test E.coli JC-2 [4]: 0.1 µg/mL
- In vitro Sensitivity Test H.pp M-1 [5]: 0.2 µg/mL
- In vitro Sensitivity Test S.typhi 13311 [6]: 0.1 µg/mL
- In vitro Sensitivity Test S.au 209P [7]: 0.1 µg/mL
- In vitro Sensitivity Test P.pis No. 2 [8]: 0.39 µg/mL
- In vitro Sensitivity Test Str.sp SNO6119 [9]: 0.78 µg/mL
- antimicrobial activity compared with ERFX [10]: two times more effective than ERFX
- complete inihibition of the lesions in air sac at a concentration of ([10]; oral administration, MG-infected chicken): about 3.13 mg/kg

Compound: O=C(O)c1cn(C2CC2)c2c(F)c(N3CC4CCCC(=O)C4C3)c(F)cc2c1=O (stereo not shown) [I-4]
- In vitro Sensitivity Test MG S6 [1]: 0.05 µg/mL
- In vitro Sensitivity Test Mh ST-11 [2]: ≦0.025 µg/ml
- In vitro Sensitivity Test E.coli JC-2 [4]: 0.2 µg/mL
- In vitro Sensitivity Test H.pp M-1 [5]: 0.2 µg/mL
- In vitro Sensitivity Test S.typhi 13311 [6]: 0.39 µg/mL
- In vitro Sensitivity Test S.au 209P [7]: 0.05 µg/mL
- In vitro Sensitivity Test P.pis No. 2 [8]: 6.25 µg/mL
- In vitro Sensitivity Test Str.sp SNO6119 [9]: 0.39 µg/mL
- Infectious index Left air sack + [10, 15]: 1
- Infectious index Left air sack ++ [10, 15]: 0
- Infectious index Left air sack +++ [10, 15]: 0
- Infectious index Left air sack - [10, 15]: 3
- Infectious index Right air sack + [10, 15]: 1
- Infectious index Right air sack ++ [10, 15]: 1
- Infectious index Right air sack +++ [10, 15]: 0
- Infectious index Right air sack - [10, 15]: 2
- Infectious index Left air sack + [10, 16]: 0
- Infectious index Left air sack ++ [10, 16]: 0
- Infectious index Left air sack +++ [10, 16]: 0
- Infectious index Left air sack - [10, 16]: 5
- Infectious index Right air sack + [10, 16]: 0
- Infectious index Right air sack ++ [10, 16]: 0
- Infectious index Right air sack +++ [10, 16]: 0
- Infectious index Right air sack - [10, 16]: 5
- Infectious index Left air sack + [10, 17]: 0
- Infectious index Left air sack ++ [10, 17]: 0
- Infectious index Left air sack +++ [10, 17]: 0
- Infectious index Left air sack - [10, 17]: 5
- Infectious index Right air sack + [10, 17]: 0
- Infectious index Right air sack ++ [10, 17]: 0
- Infectious index Right air sack +++ [10, 17]: 0
- Infectious index Right air sack - [10, 17]: 5
- Number of fowl having air sack lesions [10, 15]: 2
- Number of fowl having air sack lesions [10, 16]: 0
- Number of fowl having air sack lesions [10, 17]: 0

Compound: CNC[C@@]12CCC[C@@H]1CN(c1c(F)cc3c(=O)c(C(=O)O)cn(C4CC4)c3c1Cl)C2.Cl (relative stereo) [I-11, 7-[(1R*,5S*)-1-methylaminomethyl-3-azabicyclo[3.3.0]octan-3-yl]-1-cyclopropyl-8-chloro-6-fluoro-1,4-dihydro-4-oxo-3-quinolinecarboxylic acid hydrochloride]
- antimicrobial activity compared with ERFX [10]: nearly equal potency to ERFX

Compound: CNC[C@@]12CCC[C@@H]1CN(c1c(Cl)cc3c(=O)c(C(=O)O)cn(C4CC4)c3c1Cl)C2.Cl (relative stereo) [I-10, 7-[(1R*,5S*)-1-methylaminomethyl-3-azabicyclo[3.3.0]octan-3-yl]-1-cyclopropyl-6,8-dichloro-1,4-dihydro-4-oxo-3-quinoline carboxylic acid hydrochloride]
- In vitro Sensitivity Test MG S6 [1]: 0.00625 µg/mL
- In vitro Sensitivity Test Mh ST-11 [2]: 0.05 µg/mL
- In vitro Sensitivity Test B.br ABU-1 [3]: 12.5 µg/mL
- In vitro Sensitivity Test E.coli E-17 [11]: 0.39 µg/ml
- In vitro Sensitivity Test E.coli JC-2 [4]: 0.78 µg/mL
- In vitro Sensitivity Test H.pg 221 [12]: 0.78 µg/mL
- In vitro Sensitivity Test H.pg S-1 [13]: 0.39 µg/mL
- In vitro Sensitivity Test H.pp M-1 [5]: 0.78 µg/mL
- In vitro Sensitivity Test S.typhi 13311 [6]: 0.78 µg/mL
- In vitro Sensitivity Test S.au 209P [7]: 0.025 to 0.05 µg/mL
- In vitro Sensitivity Test P.pis No. 2 [8]: 1.56 µg/mL
- In vitro Sensitivity Test Str.sp SNO6119 [9]: 0.78 µg/mL
- Infectious index Left air sack + [10, 18]: 0
- Infectious index Left air sack ++ [10, 18]: 0
- Infectious index Left air sack +++ [10, 18]: 0
- Infectious index Left air sack - [10, 18]: 4
- Infectious index Right air sack + [10, 18]: 2
- Infectious index Right air sack ++ [10, 18]: 0
- Infectious index Right air sack +++ [10, 18]: 1
- Infectious index Right air sack - [10, 18]: 1
- Infectious index Left air sack + [10, 19]: 1
- Infectious index Left air sack ++ [10, 19]: 0
- Infectious index Left air sack +++ [10, 19]: 0
- Infectious index Left air sack - [10, 19]: 4
- Infectious index Right air sack + [10, 19]: 2
- Infectious index Right air sack ++ [10, 19]: 2
- Infectious index Right air sack +++ [10, 19]: 0
- Infectious index Right air sack - [10, 19]: 1
- Infectious index Left air sack + [10, 20]: 0
- Infectious index Left air sack ++ [10, 20]: 0
- Infectious index Left air sack +++ [10, 20]: 0
- Infectious index Left air sack - [10, 20]: 5
- Infectious index Right air sack + [10, 20]: 0
- Infectious index Right air sack ++ [10, 20]: 0
- Infectious index Right air sack +++ [10, 20]: 0
- Infectious index Right air sack - [10, 20]: 5
- Infectious index Left air sack + [10, 21]: 0
- Infectious index Left air sack ++ [10, 21]: 0
- Infectious index Left air sack +++ [10, 21]: 0
- Infectious index Left air sack - [10, 21]: 5
- Infectious index Right air sack + [10, 21]: 0
- Infectious index Right air sack ++ [10, 21]: 0
- Infectious index Right air sack +++ [10, 21]: 0
- Infectious index Right air sack - [10, 21]: 5
- Number of fowl having air sack lesions [10, 18]: 3
- Number of fowl having air sack lesions [10, 19]: 4
- Number of fowl having air sack lesions [10, 20]: 0
- Number of fowl having air sack lesions [10, 21]: 0

Compound: CCn1cc(C(=O)O)c(=O)c2cc(F)c(N3C[C@H]4CCC[C@@]4(CNC)C3)c(F)c21.Cl (relative stereo) [I-19, 7-[(1R*,5S*)-1-methylaminomethyl-3-azabicyclo[3.3.0]octan-3-yl]-1-ethyl-6,8-difluoro-1,4-dihydro-4-oxo-3-quinolinecarboxylic acid hydrochloride]
- In vitro Sensitivity Test MG S6 [1]: 0.00625 µg/mL
- In vitro Sensitivity Test Mh ST-11 [2]: 0.39 µg/mL
- In vitro Sensitivity Test E.coli JC-2 [4]: 0.39 µg/mL
- In vitro Sensitivity Test H.pp M-1 [5]: 0.78 µg/mL
- In vitro Sensitivity Test S.typhi 13311 [6]: 0.78 µg/mL
- In vitro Sensitivity Test S.au 209P [7]: 0.05 µg/mL
- In vitro Sensitivity Test P.pis No. 2 [8]: 1.56 µg/mL
- In vitro Sensitivity Test Str.sp SNO6119 [9]: 1.56 µg/mL
- Number of infected fowl/Number of fowl tested ([10]; oral 1.56 mg/kg): 3/5
- Number of infected fowl/Number of fowl tested ([10]; oral 3.13 mg/kg): 3/5
- Number of infected fowl/Number of fowl tested ([10]; oral 6.25 mg/kg): 1/5
- Number of infected fowl/Number of fowl tested ([14]; bait 31.3 ppm/Day): 1/7
- Number of infected fowl/Number of fowl tested ([14]; bait 62.5 ppm/Day): 0/7
- Number of infected fowl/Number of fowl tested ([14]; bait 125 ppm/Day): 0/7
